Measurements as given in patent publication US12319752B2, “Heparin-binding cationic peptide self-assembling peptide amphiphiles useful against drug-resistant bacteria” (priority 2016, dated 2025).
Residues, ends and D or L forms follow the SMILES beside them. *: point of attachment. Palmitoyl = CCCCCCCCCCCCCCCC(=O)*

Tested on: human dermal fibroblasts (HDF)
Test: Cytotoxicity, MTS cell viability assay
Type: cell-based
Settings: HDF, concentrations higher than 20 μM, 24 h
Method: To evaluate the cytotoxicity of the peptides, human dermal fibroblasts (HDF) were treated for 24 h, and cell viability was determined via MTS assays (FIG. 13).
Human dermal fibroblast cells (HDF, Detroit 551, ATCC #CCL-110) were cultured in Dulbecco's modified Eagle medium (DMEM; Fisher, Pittsburgh, PA) supplemented with 10% fetal bovine serum (FBS) and 1% penicillin/streptomycin for 24 h. All cells were cultured to 90% confluence in a 37° C., humidified, 5% CO2/95% air environment. Cells at passage numbers of 4-7 were used in these experiments.
The MTS cell viability assay kit (Promega, Madison, WI, USA) was used to determine cytotoxicity of the peptides. First, HDF cells were seeded on a 96-well plate at a cell density of 5,000 cells/well (equal to 15,385 cells/cm^2), and were incubated overnight for cell adhesion. After overnight incubation, the cell medium in each well was replaced by 100 μL of cell culture medium containing various concentrations of peptides (20 μM to 100 μM). The control samples were cells incubated in cell culture medium only. After 24 h, the treatment medium in each well was removed. The cells were washed with phosphate buffered saline (PBS, pH=7.4, Fisher, PA, USA) and 100 μL of fresh cell culture medium was added to each well, followed by the addition of 20 μL of the MTS reagent. After the cells were incubated for 2.5 h, the absorbance was measured at a wavelength of 490 nm by a spectrophotometer (SpectraMax M3, Molecular Devices, Molecular Devices, Sunnyvale, CA, USA). To estimate the cell numbers in each well, a standard curve expressing the linear correlation between different cell densities and optical densities (R^2>0.95) was plotted, and the cell numbers were determined with this standard curve from the OD490 value recorded in each sample. The cell viability of each sample was calculated by: Cell viability=[(cell density per mL of treated sample)/(cell density per mL of control sample)]×100%. Data were expressed by standard error of the mean (±S.E.M.) and N=3, *p<0.05 compared with control samples.

SMILES: CCCCCCCCCCCCCCCC(=O)N[C@H](C(=O)N[C@H](C(=O)N[C@H](C(=O)N[C@H](C(=O)N[C@@H](CCCCN)C(=O)N[C@@H](CCCCN)C(=O)N[C@@H](CCCCN)C(=O)N[C@@H](CCCCN)C(=O)O)C(C)C)C(C)C)C(C)C)C(C)C [CVK-PA, C16-V4K4 (SEQ ID NO: 1), reference compound] (Palmitoyl-VVVVKKKK-OH)
- cell death: over 40%
